Tests used:
[1] = molecular target: T1, HEK293-GnRHR cells (Homo sapiens, UniProt P30968); test: Intracellular calcium flux assay; type: cell-based
T1 construct: GFP; expressed in transfected cells
T1 sequence (P30968 1-328): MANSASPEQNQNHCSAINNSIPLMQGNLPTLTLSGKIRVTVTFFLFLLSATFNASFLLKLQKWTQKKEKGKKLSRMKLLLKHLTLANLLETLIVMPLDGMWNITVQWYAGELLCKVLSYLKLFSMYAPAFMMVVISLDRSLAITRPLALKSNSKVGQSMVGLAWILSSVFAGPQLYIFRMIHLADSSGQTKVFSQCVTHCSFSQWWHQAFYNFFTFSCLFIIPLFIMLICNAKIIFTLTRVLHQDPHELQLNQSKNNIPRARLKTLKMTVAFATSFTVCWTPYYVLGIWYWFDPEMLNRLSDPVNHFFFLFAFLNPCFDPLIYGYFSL
Method: Human embryonic kidney cell line (HEK293), and mouse cancer cell lines (MC38, 4T1) were purchased from the American Type Culture Collection (Manassas, VA, USA). All cell lines were grown in Dulbecco's Modified Essential Medium (DMEM) or Roswell Park Memorial Institute (RPMI) 1640 supplemented with 10% FBS, 100 U/mL penicillin, and 100 μg/mL streptomycin (WelGENE, Daegu, South Korea) in a humidified atmosphere of 5% CO2 at 37° C. To obtain GnRHR-overexpressing HEK293 (HEK293-GnRHR) cells, transfection of the pCMV-AC-GFP-GnRHR vector (HEK293-GnRHR) was performed using Lipofectamine™ 3000 according to the manufacturer's instructions (Cat. 100022052, Thermo Fisher Scientific, Waltham, MA, USA). Colonies of geneticin-resistant cells were selected by adding G418 (800 μg/mL, Sigma) to the culture medium. The HEK293-pCMV-AC-GFP vector (HEK293-Vector) cells were used as a mock-transfection group.
Intracellular calcium mobilization was measured using the Calcium Flux Assay Kit (Cat. ab233472, abcam) in response to different concentrations of each peptide. The percentage increase was calculated relative to basal fluorescence intensity. The experiment was performed in triplicate.

[2] = system: c-Myc, AKT, ERK1/2 in LNCaP tumor xenografts; test: Western blot of c-Myc and signaling proteins in LNCaP-xenografted tumors (FIG. 14); type: in vivo, mouse; conditions: LNCaP xenograft; HS1002 1 mg/kg/day, LA 0.1 mg/kg/day s.c.
Method: The cells and tumor tissues were homogenized using the PRO-PREP™ extraction solution (iNtRON Biotechnology, Seongnam, Korea). After incubation, the homogenate was centrifuged at 16,000×g for 20 min at 4° C., and the supernatant was collected for western blot analysis. Subsequently, an equivalent quantity of protein was separated using sodium dodecyl sulfate polyacrylamide gels and transferred onto a polyvinylidene difluoride (PVDF) membrane. The PVDF membranes were incubated with the primary antibodies overnight at 4° C., washed with tris-buffered saline, and then incubated with HRP-conjugated anti-mouse or anti-rabbit antibodies. The bands were visualized using a ChemiDoc imaging system (Bio-Rad, Hercules, CA, USA). The band intensities were determined using an Image J software.
All mice were purchased from Central Lab Animal Inc. ([…]). They were raised in a 12 h environmental light/dark cycle with controlled temperature (22±2° C.) conditions. The experimental protocol was approved by the Sungkyunkwan University Institutional Animal Care and Use Committee (SKKUIACUC2021-06-27-1, SKKUIACUC2023-01-07-1). For the establishment of tumors, LNCaP (1×10^7), MC38 (2×10^5), and 4T1 (1×10^6) suspended in serum-free media containing 50% Matrigel was subcutaneously administered in the right flank of mice, respectively. The tumor volumes (V) were calculated using a caliper and the standard equation: V (mm^3)=0.52 (ab^2) (a=length, b=width). Once the tumor reached 100-200 mm^3, the mice were randomly divided into different groups and subcutaneously injected with a vehicle or each peptide every day.
To investigate the anticancer effect of HS1002, the present inventors observed the volume of cancer cells after transplanting the cancer cells into experimental animals. Specifically, mice (4-week-old male BALB/c nude mice; Central Lab. Animal Inc., Seoul, Korea) were prepared, and tumor cells (1×10^7 LNCaP cells) suspended in 1 mL of a serum-free medium containing 50% Matrigel were percutaneously injected into the upper flank of each nude mouse. When the tumor cell volume reached about 200 mm^3, the mice were randomly assigned to a vehicle control group, a leuprolide acetate-treated group, and test groups (GV1001-treated group and HS1002-treated group), respectively. Leuprolide acetate (0.1 mg/kg/day) and GV1001 and HS1002 (1 mg/kg/day) were injected subcutaneously for 13 days.

SMILES: CCNC(=O)[C@@H]1CCCN1C(=O)[C@@H](NC(=O)[C@H](Cc1ccccc1)NC(=O)[C@H](CCCNC(=N)N)NC(=O)[C@H](CC(C)C)NC(=O)[C@H](CCCNC(=N)N)NC(=O)[C@H](Cc1ccc(O)cc1)NC(=O)[C@H](CO)NC(=O)[C@H](Cc1c[nH]c2ccccc12)NC(=O)[C@H](Cc1c[nH]cn1)NC(=O)[C@@H]1CCC(=O)N1)[C@@H](C)CC [HS1002]
- calcium flux ([1]; 100 nM): increased calcium flux in HEK293-GnRHR cells
- calcium flux ([1]; 1 and 10 nM): increased calcium flux
- expression of c-Myc in tumor tissue [2]: significantly downregulated
- expression of p-AKT in tumor tissue [2]: significantly downregulated
- expression of p-ERK1/2 in tumor tissue [2]: significantly downregulated

From patent US20240247031A1, “COMPOSITION FOR TREATING CANCER CONTAINING TELOMERASE-TARGETING GNRH ANTAGONIST-DERIVED PEPTIDE HS1002” (Research & Business Foundation Sungkyunkwan University, priority 2023, published 2024)
